Positions count from the first letter of the chain named. “Also recorded” adds a separate entry of the source.
Assays:
Experiment in all cases: yeast liquid growth assay
Type in all cases: cell-based
hA1AR A20T^1.43 = molecular target: T1, hA1AR A20T^1.43 (Homo sapiens, UniProt P30542, A20T); details: ratio over basal activity of wild type hA1AR, 7 mM 3-AT
T1 construct: expressed in transfected cells; host or cells: S. cerevisiae MMY24
T1 sequence (P30542 1-326 A20T): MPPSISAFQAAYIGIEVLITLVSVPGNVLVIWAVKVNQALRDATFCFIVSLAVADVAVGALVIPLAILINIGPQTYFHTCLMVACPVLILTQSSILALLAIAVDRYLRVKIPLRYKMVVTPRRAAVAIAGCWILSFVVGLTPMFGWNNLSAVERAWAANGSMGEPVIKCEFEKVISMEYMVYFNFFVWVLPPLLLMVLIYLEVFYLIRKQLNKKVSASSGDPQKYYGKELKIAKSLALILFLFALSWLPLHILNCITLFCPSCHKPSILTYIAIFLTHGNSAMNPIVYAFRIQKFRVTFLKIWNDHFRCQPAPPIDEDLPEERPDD
Method: (§1) The plasmids, pDT-PGK_hA1AR, containing either wild type or mutated hA1AR were transformed into a MMY24 S. cerevisiae strain following the lithium acetate procedure.
(§2) In order to characterize the mutant hA1ARs, liquid growth assays in 96-well plates were performed to obtain concentration–growth curves as previously described. […] The overnight cultures were then diluted to 40,000 cells/mL (OD600 ≈ 0.02) in a selective medium without uracil, leucine, and histidine (YNB-ULH). For the determination of constitutive activity, 50 μL of yeast cells and 150 μL of YNB-ULH medium containing different concentrations of 3-AT and 0.8 IU/mL ADA were then added to each well. To obtain concentration–growth curves, 2 μL of various concentrations of ligands, 50 μL of yeast cells, and 150 μL of YNB-ULH medium containing 7 mM 3-AT and 0.8 IU/mL ADA were then added to each well. After incubation at 30 °C for 35 h in a Genios plate reader (TECAN, Zürich, Switzerland) with shaking for 1 min at 300 rpm every 10 min, the optical density was measured at a wavelength of 595 nm, which represented the level of yeast cell growth.
(§3) All experimental data were analyzed by GraphPad Prism 7.0 or 8.0 (GraphPad Software Inc., San Diego, CA, USA). Data from yeast liquid growth and [^35S]GTPγS binding assays were analyzed by non-linear regression using “log (agonist) vs. response (three parameters)” or “log (inhibitor) vs. response (three parameters)” to obtain potency (EC50), inhibitory potency (IC50), and efficacy (Emax or Imax) values. The radioligand displacement curves were obtained from a statistically preferred one-site or two-site binding model. pKi values were calculated from pIC50 values using the Cheng–Prusoff equation, where KD values were obtained from the homologous competition assays from this study and calculated by non-linear regression using “one site–homologous” [62].

hA1AR D55V^2.50 = molecular target: T2, hA1AR D55V^2.50 (Homo sapiens, UniProt P30542, D55V); details: result in words
T2 construct: expressed in transfected cells; host or cells: S. cerevisiae MMY24
T2 sequence (P30542 1-326 D55V): T1 sequence (P30542 1-326 A20T) with T20A, D55V
Method: as §1, §2, §3

hA1AR L134F^4.52 = molecular target: T3, hA1AR L134F^4.52 (Homo sapiens, UniProt P30542, L134F); details: result in words
T3 sequence (P30542 1-326 L134F): T1 sequence (P30542 1-326 A20T) with T20A, L134F
Method: as §1, §2, §3

hA1AR S267I^7.32 = molecular target: T4, hA1AR S267I^7.32 (Homo sapiens, UniProt P30542, S267I); details: result in words
T4 construct: expressed in transfected cells; host or cells: S. cerevisiae MMY24
T4 sequence (P30542 1-326 S267I): T1 sequence (P30542 1-326 A20T) with T20A, S267I
Method: as §1, §2, §3

hA1AR W188C^5.46 = molecular target: T5, hA1AR W188C^5.46 (Homo sapiens, UniProt P30542, W188C)
T5 sequence (P30542 1-326 W188C): T1 sequence (P30542 1-326 A20T) with T20A, W188C
Method: as §1, §2, §3

OC[C@H]1O[C@@H](n2cnc3c(NC4CCCC4)ncnc32)[C@H](O)[C@@H]1O [CPA, N^6-cyclopentyladenosine]
Emax (hA1AR A20T^1.43): 4.23 ± 0.60
agonist-induced receptor activation (hA1AR D55V^2.50): could not be activated
agonist-induced receptor activation (hA1AR L134F^4.52): could not be activated
agonist-induced receptor activation (hA1AR S267I^7.32): could not be activated; also recorded: complete loss of activation
decrease in potency versus wild type hA1AR (hA1AR W188C^5.46): 10 fold
Emax (hA1AR W188C^5.46; ratio over basal activity of wild type hA1AR, 7 mM 3-AT): 4.35 ± 0.10

From publication PMC9229843, “Cancer-Related Somatic Mutations in Transmembrane Helices Alter Adenosine A1 Receptor Pharmacology” (Molecules, 2022)
